Data from PubChem BioAssay (NCI).
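Values below derive from 48-hour exposures of cells grown in 96-well plates, with endpoints linearly interpolated between the two concentrations bracketing the appropriate inhibition level. At the TGI there is no net growth.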

How the values were obtained:
Experiment in all cases: inhibition of tumour cell growth, NCI panel, 48 h
[1] = system: ACHN renal
[2] = system: COLO 205 colon
[3] = system: DU-145 prostate
[4] = system: EKVX NSCLC
[5] = system: HS 578T breast
[6] = system: IGROV1 ovarian
[7] = system: MOLT-4 leukemia
[8] = system: NCI-H226 lung
[9] = system: NCI-H460 lung
[10] = system: OVCAR-4 ovarian
[11] = system: OVCAR-5 ovarian
[12] = system: PC-3 prostate
[13] = system: RXF 393 renal
[14] = system: SF-268 CNS
[15] = system: SF-295 CNS
[16] = system: SF-539 CNS
[17] = system: SN12C renal
[18] = system: SNB-75 CNS
[19] = system: T-47D breast
[20] = system: UACC-62 melanoma

Row | SMILES | TGI [1] | TGI [2] | TGI [3] | TGI [4] | TGI [5] | TGI [6] | TGI [7] | TGI [8] | TGI [9] | TGI [10] | TGI [11] | TGI [12] | TGI [13] | TGI [14] | TGI [15] | TGI [16] | TGI [17] | TGI [18] | TGI [19] | TGI [20]
1 | CC[C@@H]1C(=O)OC[C@@H]1Cc1cncn1C | > 100 µM | > 100 µM | > 100 µM | > 100 µM | > 100 µM | > 100 µM | > 100 µM | > 100 µM | > 100 µM | > 100 µM | > 100 µM | > 100 µM | > 100 µM | > 100 µM | > 100 µM | > 100 µM | > 100 µM | > 100 µM | > 100 µM | > 100 µM
2 | N#Cc1c(=O)c2ccccc2n2c1[nH]c1ccccc12 | > 100 µM | > 100 µM | > 100 µM | > 100 µM | > 100 µM | > 100 µM | > 100 µM | > 100 µM | > 100 µM | > 100 µM | > 100 µM | > 100 µM | > 100 µM | > 100 µM | > 100 µM | > 100 µM | > 100 µM | > 100 µM | 79.7 µM | > 100 µM
3 | N#CC1C(=O)SC2c3ccccc3C(=O)c3ccccc3C12 (stereo not given) | > 10 µM | > 10 µM | > 10 µM | > 10 µM | > 10 µM | > 10 µM | > 10 µM | > 10 µM | > 10 µM | > 10 µM | > 10 µM | > 10 µM | > 10 µM | > 10 µM | > 10 µM | > 10 µM | > 10 µM | > 10 µM | > 10 µM | > 10 µM
